In paper PMC7643960 (PLoS ONE, 2020):

Legend:
Type in all cases: cell-based, horse
[1] = tested on: primary EMM cells MelDuWi; test: crystal violet staining assay (CVS), proliferation; conditions: mean (95% CI)
Description: (§1) All cells used for the experiments originate from different horses. Primary EMM cells (MelDuWi) and primary equine dermal fibroblasts (PriFi1, PriFi2) belong to the cell culture stock of the Clinic for Horses, University of Veterinary Medicine Hannover, Foundation, Hannover, Germany.
(§2) The proliferation assay was performed as published. […] Control cells were treated with medium only. The proportion of cells treated relative to untreated controls was determined by crystal violet staining and photometric absorbance measurement at the incubation time points mentioned above. Proliferation assays were performed in six to eight biological replicates with two technical replicates for each combination of cell type, incubation time and compound concentration.
(§3) Technical duplicates with a coefficient of variation of more than 20% were excluded from the cell assay analysis. […] Additional statistical data analysis was conducted with R 3.5.1.. A generalized additive model was fitted for each test (MTS and CVS) and cell type comparison (primary EMM cells and fibroblasts, and primary ES cells and fibroblasts) using the ‘mgcv’ package. Compound concentrations and the duration of incubation were modeled as tensor product smooth interacting with compound and cell line. Cell passage was added as a random effect. An appropriate distribution was selected by the visual inspection of residuals. The p-values were obtained by performing a Wald test for each parameter. Statistical significance was set at 0.05.

primary EMM cells eRGO1 [2] = test: crystal violet staining assay (CVS), proliferation; conditions: mean (95% CI)
Description: as §1, §2, §3

primary ES cells sRGO1 [3] = test: crystal violet staining assay (CVS), proliferation; conditions: mean (95% CI)
Description: as §1, §2, §3

primary ES cells sRGO2 = test: crystal violet staining assay (CVS), proliferation; conditions: mean (95% CI)
Description: as §1, §2, §3

[4] = tested on: primary equine dermal fibroblasts PriFi1; test: crystal violet staining assay (CVS), proliferation; conditions: mean (95% CI)
Description: as §1, §2, §3

[5] = tested on: primary equine dermal fibroblasts PriFi2; test: crystal violet staining assay (CVS), proliferation; conditions: mean (95% CI)
Description: as §1, §2, §3

[6] = tested on: primary EMM cells MelDuWi; test: MTS cytotoxicity assay; conditions: mean (95% CI)
Description: as §1
(§4) The cytotoxicity of the compounds was assessed by the CellTiter 96® AQueous One Solution Cell Proliferation Assay (MTS) (Promega GmbH, Mannheim, Germany) as reported. In brief, in order to reach cell confluence within 48 h, cells were seeded into 96-well plates in adequate densities (MelDuWi 30,000 cells/well; PriFi1, PriFi2, eRGO1 20,000 cells/well; sRGO1and sRGO2 15,000 cells/well). […] The formazan dye generated by the metabolic active cells was quantified photometrically. Cytotoxicity assays were performed in six to nine biological replicates with two technical replicates for each combination of cell type, incubation time and compound concentration.
as §3

primary EMM cells eRGO1 [7] = test: MTS cytotoxicity assay; conditions: mean (95% CI)
Description: as §1, §4, §3

primary ES cells sRGO1 [8] = test: MTS cytotoxicity assay; conditions: mean (95% CI)
Description: as §1, §4, §3

[9] = tested on: primary equine dermal fibroblasts PriFi1; test: MTS cytotoxicity assay; conditions: mean (95% CI)
Description: as §1, §4, §3

[10] = tested on: primary equine dermal fibroblasts PriFi2; test: MTS cytotoxicity assay; conditions: mean (95% CI)
Description: as §1, §4, §3

EMM cells MelDuWi = test: cell cycle investigation by flow cytometry (propidium iodide); conditions: double IC50 concentration
Description: (§5) Approximately 7.5 × 10^5 cells (MelDuWi) and 1.0 × 10^6 cells (PriFri2 and sRGO2) were seeded in 25 cm^2 cell culture flasks. […] Following 24 and 48 h of incubation, the cells were harvested by mild trypsinization and washed twice with phosphate-buffered saline (PBS) buffer (containing Mg^2+ and Ca^2+). Cells (1.0 × 10^6) were fixed with ethanol (70%, -20°C, for 24 h). After discarding the ethanol, the cells were washed in 1 mL PBS buffer (containing Mg^2+ and Ca^2+) and were centrifuged. The cell pellet was resuspended in 1 mL of staining PBS buffer (containing Mg^2+ and Ca^2+, 10 μg/mL RNASe [Thermofisher] and 15 μg/mL propidium iodide [Sigma-Aldrich, Munich, Germany]) and was incubated for 30 min at room temperature. Analyses were performed using the Attune® FACS machine (Life Technologies, Darmstadt, Germany) collecting data from the BL-2A channel. Doublet cells were excluded from the measurements by plotting BL-2A against BL-2H. A total of 20,000 events were collected for each cell cycle distribution. Each sample was measured in duplicate.

ES cells sRGO2 = test: as above; conditions: double IC50 concentration
Description: as §5

[11] = tested on: equine dermal fibroblasts PriFri2; test: as above; conditions: double IC50 concentration
Description: as §5

In the case of `C=C(C)[C@@H]1CC[C@]2(COS(N)(=O)=O)CC[C@]3(C)[C@H](CC[C@@H]4[C@@]5(C)CC[C@H](OS(N)(=O)=O)C(C)(C)[C@@H]5CC[C@]43C)[C@@H]12` [BBS, (3β)-Lup-20(29)-ene-3,28-diol, 3,28-disulfamate], the IC50 ([1]; 5 h) is reported as > 100 µM, the IC50 ([1]; 24 h) is reported as 50 µM and the IC50 ([1]; 48 h) is reported as 36 µM. The IC50 ([1]; 96 h) was 16 µM, the IC50 (primary EMM cells eRGO1 [2]; eRGO1, 5 h) was > 100 µM and the IC50 (primary EMM cells eRGO1 [2]; eRGO1, 24 h) was 42 µM. For the same molecule, the IC50 (primary EMM cells eRGO1 [2]; eRGO1, 48 h) was 25 µM, the IC50 (primary EMM cells eRGO1 [2]; eRGO1, 96 h) was 15 µM and the IC50 (primary ES cells sRGO1 [3]; sRGO1, 5 h) was > 100 µM. The IC50 (primary ES cells sRGO1 [3]; sRGO1, 24 h) was 40 µM, the IC50 (primary ES cells sRGO1 [3]; sRGO1, 48 h) was 23 µM and the IC50 (primary ES cells sRGO2; sRGO2, 5 h) was > 100 µM. The IC50 (primary ES cells sRGO2; sRGO2, 24 h) was 38 µM, the IC50 (primary ES cells sRGO2; sRGO2, 48 h) was 29 µM and the IC50 ([4]; PriFi1, 5 h) was > 100 µM. For the same molecule, the IC50 ([4]; PriFi1, 24 h) was 52 µM, the IC50 ([4]; PriFi1, 48 h) was 42 µM and the IC50 ([4]; PriFi1, 96 h) was 17 µM. The IC50 ([5]; PriFi2, 5 h) was > 100 µM, the IC50 ([5]; PriFi2, 24 h) was 62 µM and the IC50 ([5]; PriFi2, 48 h) was 39 µM. For the same molecule, the IC50 ([5]; PriFi2, 96 h) was 16 µM, the IC50 ([6]; 5 h) was > 100 µM and the IC50 ([6]; 24 h) was 60 µM. For the same molecule, the IC50 ([6]; 48 h) was 53 µM, the IC50 ([6]; 96 h) was 32 µM and the IC50 (primary EMM cells eRGO1 [7]; eRGO1, 5 h) was > 100 µM. It also gave an IC50 (primary EMM cells eRGO1 [7]; eRGO1, 24 h) of 47 µM, an IC50 (primary EMM cells eRGO1 [7]; eRGO1, 48 h) of 32 µM and an IC50 (primary EMM cells eRGO1 [7]; eRGO1, 96 h) of 16 µM. For the same molecule, the IC50 (primary ES cells sRGO1 [8]; sRGO1, 5 h) was > 100 µM, the IC50 (primary ES cells sRGO1 [8]; sRGO1, 48 h) was 25 µM and the IC50 ([9]; PriFi1, 5 h) was > 100 µM. For the same molecule, the IC50 ([9]; PriFi1, 24 h) was 59 µM, the IC50 ([9]; PriFi1, 48 h) was 35 µM and the IC50 ([9]; PriFi1, 96 h) was 28 µM. The IC50 ([10]; PriFi2, 5 h) was > 100 µM, the IC50 ([10]; PriFi2, 24 h) was 77 µM and the IC50 ([10]; PriFi2, 48 h) was 61 µM. The IC50 ([10]; PriFi2, 96 h) was 20 µM, the “Cell cycle percentage G1/G0” value (EMM cells MelDuWi; 24 h) was 68,2% and the “Cell cycle percentage M” value (EMM cells MelDuWi; 24 h) was 0,5%. For the same molecule, the “Cell cycle percentage S” value (EMM cells MelDuWi; 24 h) was 23,9%, the “Cell cycle percentage SubG1” value (EMM cells MelDuWi; 24 h) was 6,7% and the “Cell cycle percentage G1/G0” value (EMM cells MelDuWi; 48 h) was 48,2%. For the same molecule, the “Cell cycle percentage M” value (EMM cells MelDuWi; 48 h) was 0,3%, the “Cell cycle percentage S” value (EMM cells MelDuWi; 48 h) was 7,6% and the “Cell cycle percentage G1/G0” value (ES cells sRGO2; sRGO2, 24 h) was 71,9%. The “Cell cycle percentage M” value (ES cells sRGO2; sRGO2, 24 h) was 1,6%, the “Cell cycle percentage S” value (ES cells sRGO2; sRGO2, 24 h) was 21,8% and the “Cell cycle percentage SubG1” value (ES cells sRGO2; sRGO2, 24 h) was 5,3%. The “Cell cycle percentage G1/G0” value (ES cells sRGO2; sRGO2, 48 h) was 63,2%, the “Cell cycle percentage M” value (ES cells sRGO2; sRGO2, 48 h) was 1,8% and the “Cell cycle percentage S” value (ES cells sRGO2; sRGO2, 48 h) was 16,7%. The “Cell cycle percentage SubG1” value (ES cells sRGO2; sRGO2, 48 h) was 17,5%, the “Cell cycle percentage G1/G0” value ([11]; PriFri2, 24 h) was 79,1% and the “Cell cycle percentage M” value ([11]; PriFri2, 24 h) was 1,0%. The “Cell cycle percentage S” value ([11]; PriFri2, 24 h) was 12,1%, the “Cell cycle percentage SubG1” value ([11]; PriFri2, 24 h) was 7,1% and the “Cell cycle percentage G1/G0” value ([11]; PriFri2, 48 h) was 73,7%. For the same molecule, the “Cell cycle percentage M” value ([11]; PriFri2, 48 h) was 0,9%, the “Cell cycle percentage S” value ([11]; PriFri2, 48 h) was 10,8% and the “Cell cycle percentage SubG1” value ([11]; PriFri2, 48 h) was 13,7%.
